Entries after “also recorded” stand apart in the source; their conditions may differ. Read-outs that look alike come from different tables or passages of the source.
What was measured:
[1] = target: T1, lectin PA-IL (Pseudomonas aeruginosa, UniProt Q05097); assay: Isothermal titration microcalorimetry (ITC); assay type: binding; conditions: for ΔH / Ka / −T ΔS / ΔG / n (stoichiometry): ITC, 25 °C; for Ka: association constant; for −T ΔS: calculated from ΔG = ΔH − TΔS; for ΔG: calculated from −RT ln Ka; for n (stoichiometry): single site-binding model
T1 construct: made in house; host or cells: Escherichia coli BL21(DE3)
T1 sequence (Q05097 2-122): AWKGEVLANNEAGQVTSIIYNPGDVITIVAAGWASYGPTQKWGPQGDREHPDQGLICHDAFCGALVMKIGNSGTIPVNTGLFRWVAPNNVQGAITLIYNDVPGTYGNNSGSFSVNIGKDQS
Experimental: All the experiments were performed on MicroCal iTC200 (Malvern Instruments, Malvern, UK) at 25 °C. The freeze-dried lectin PA-IL was dissolved in 0.1 M Tris/HCl, 500 μM CaCl2, pH = 7.5, and equilibrated at room temperature for 1 h before ITC measurements. Multivalent galactosylated compounds 4, 7, 10 and 13 were diluted in the same buffer and used in 0.25–0.5 mM concentrations. Aliquots of 2 µL of the compounds were added automatically to the 0.078 mM or 0.088 mM PA-IL in the calorimeter cell. Blank experiments (injections of compounds to the buffer) were performed and heat responses were subtracted. Integrated heat effects were analyzed by global fitting of data obtained from three independent titrations for each tested compound by non-linear regression using a single site-binding model (Microcal Origin 7, Malvern Instruments, Malvern, UK). Fitted data yielded the association constant (Ka) and the enthalpy of binding (ΔH). Other thermodynamic parameters, i.e., changes in free energy (ΔG) and entropy (ΔS), were calculated from the following equation: ΔG = ΔH − TΔS = −RT ln Ka, where T is the absolute temperature and R = 8.314 J mol^−1 K^−1. The monosaccharide D-galactose was used as a control; 4 mM D-galactose was added to the 0.147 mM PA-IL in the calorimeter cell. Two titration experiments were performed and the heat responses were processed and evaluated as mentioned above.

[2] = system: Pseudomonas aeruginosa CCM 3955 (ATCC 27853) cells; assay: Pseudomonas aeruginosa cross-linking assay with microscope detection; assay type: cell-based; conditions: for cross-linking of whole P. aeruginosa cells (cell aggregates): concentrations up to 5 mM, 10 min, microscope 100x
Experimental: Pseudomonas aeruginosa CCM 3955 (ATCC 27853) cells were inoculated from stock cells stored at −80 °C into a standard LB medium and were grown at 37 °C overnight under orbital shaking. The bacterial culture was kept in the fridge until further use. Prior to the experiment, bacterial cells were centrifuged at 4300× g (Eppendorf centrifuge MiniSpin, Eppendorf, Germany) for 2 min and subsequently washed three times with PBS buffer (137 mM NaCl, 2.7 mM KCl, 10 mM Na2HPO4, 1.8 mM KH2PO4). Bacterial cells were then diluted in PBS to an optical density OD600 = 1.5, which was checked using a spectrophotometer (WPA CO8000 Biovawe Cell Density Metr, Biochrom Ltd., Cambridge, UK). D-galactopyranoside-presenting inhibitors were diluted in ultrapure water to the concentration of 100 mM. Bacterial cells were mixed in a 9:1 ratio with the 10x concentrated selected compounds and gently mixed. The mixture was incubated at room temperature for 10 min and thoroughly mixed again. An amount of 5 µL of the mixture was transferred onto a microscope slide and observed under 100x magnification using an optical microscope (Olympus IX81F-3/IX81S1F-3, Olympus, Tokyo, Japan). As a negative control, bacterial culture mixed with ultrapure water in 9:1 ratio was used. The images were obtained using a phase contrast method and the background of the images was subtracted in GIMP.

[3] = target: T1, lectin PA-IL; assay: SPR inhibition of PA-IL binding to immobilized D-galactosides; conditions: for Potency (IC50 of standard/IC50 of inhibitor) / β (Potency/Valency): standard D-galactose
Experimental: Surface plasmon resonance (SPR) experiments were performed on a BIAcore T200 instrument (GE Healthcare, Chicago, IL, USA) at 25 °C, using HBST running buffer (10 mM HEPES, 150 mM NaCl, 0.5 mM CaCl2, 0.05% Tween 20, pH = 7). A CM5 sensor chip (GE Healthcare, Chicago, IL, USA) covered with a carboxymethylated dextran matrix was used for ligand immobilization. The sensor chip surface was activated with N-ethyl-N-(3-dimethylaminopropyl)carbodiimide/N-hydroxysuccinimide solution and then coated with streptavidin (Sigma-Aldrich, St. Louis, MO, USA) in 10 mM acetate pH = 5.0 according to the manufacturer’s standard protocol to a final response of 7000 RU. Unreacted groups were blocked with 1 M ethanolamine-HCl, pH = 8.5. 0.5 mM biotinylated carbohydrate (1:1 mixture of biotin-α-D-galactoside and biotin-β-D-galactoside for measuring channel and α-L-fucoside for blank channel, all Lectinity, Moskow, Russia) was injected into a particular channel at a flow rate of 5 μL min^−1.
In the experimental setup, SPR inhibition measurements were carried out simultaneously on both measuring and blank channels at a flow rate of 5 µL min^−1. […] The response of the blank channel was subtracted from the response of lectin bound to the galactose-modified surface at equilibrium and plotted against the concentration of inhibitor in order to determine IC50 (concentration of inhibitor resulting in 50% inhibition of binding). As IC50 is not a constant and depends on the experimental set-up, a parameter called potency was used for characterization. The potency of a tested inhibitor is the ratio of IC50 of a chosen standard inhibitor (in this case, D-galactose) and the inhibitor in question. Pure lectin PA-IL was used as a control (0% inhibition).

[4] = read-out: IC50 (concentration of inhibitor resulting in 50% inhibition of binding), SPR, PA-IL 45 µM, galactoside-modified chip, 25 °C

Row | Compound | ΔH [1] | Ka [1] | −T ΔS [1] | ΔG [1] | n (stoichiometry) [1] | cross-linking of whole P. aeruginosa cells (cell aggregates) [2] | Potency (IC50 of standard/IC50 of inhibitor) ([3]; SPR) | β (Potency/Valency) ([3]; SPR) | IC50 [3, 4] | concentration at which aggregates distinguishable from the negative control were still observed [2] | Kd [1] | IC50 [3]
1 | COC(=O)c1cc(OCc2cn(CCOCCOCCOCCn3cc(CO[C@@H]4O[C@H](CO)[C@H](O)[C@H](O)[C@H]4O)nn3)nn2)c(OCc2cn(CCOCCOCCOCCn3cc(CO[C@@H]4O[C@H](CO)[C@H](O)[C@H](O)[C@H]4O)nn3)nn2)c(OCc2cn(CCOCCOCCOCCn3cc(CO[C@@H]4O[C@H](CO)[C@H](O)[C@H](O)[C@H]4O)nn3)nn2)c1 [Compound 4] | -80.7 ± 1.01 kJ/mol | 128 ± 15.1 10^4 M^−1 | 45.9 ± 5.99 kJ/mol | -34.8 ± 4.11 kJ/mol | 0.51 ± 0.01 | Formation of aggregates was observed | 27.5 | 9.2 | 6.8 µM |  |  | 
2 | OC[C@H]1O[C@@H](OCc2cn(CCOCCOCCOCCn3cc(COCC(COCc4cn(CCOCCOCCOCCn5cc(CO[C@@H]6O[C@H](CO)[C@H](O)[C@H](O)[C@H]6O)nn5)nn4)(COCc4cn(CCOCCOCCOCCn5cc(CO[C@@H]6O[C@H](CO)[C@H](O)[C@H](O)[C@H]6O)nn5)nn4)COCc4cn(CCOCCOCCOCCn5cc(CO[C@@H]6O[C@H](CO)[C@H](O)[C@H](O)[C@H]6O)nn5)nn4)nn3)nn2)[C@H](O)[C@@H](O)[C@H]1O [Compound 7] | -110.0 ± 0.82 kJ/mol | 281 ± 23.5 10^4 M^−1 | 72.7 ± 6.65 kJ/mol | -36.8 ± 3.09 kJ/mol | 0.32 ± 0.01 | highest cross-linking activity; also recorded: Formation of aggregates was observed | 25.6 | 6.4 | 7.3 µM | 1.25 mM |  | 
3 | COC(=O)c1cc(OCc2cn(CCn3cc(CO[C@@H]4O[C@H](CO)[C@H](O)[C@H](O)[C@H]4O)nn3)nn2)c(OCc2cn(CCn3cc(CO[C@@H]4O[C@H](CO)[C@H](O)[C@H](O)[C@H]4O)nn3)nn2)c(OCc2cn(CCn3cc(CO[C@@H]4O[C@H](CO)[C@H](O)[C@H](O)[C@H]4O)nn3)nn2)c1 [Compound 10] | -68.2 ± 0.75 kJ/mol |  | 33.4 ± 3.87 kJ/mol | -34.7 ± 3.64 kJ/mol | 0.53 ± 0.01 | Formation of aggregates was observed | 25.3 | 8.4 |  |  | 820 nM | 7.4 µM
4 | OC[C@H]1O[C@@H](OCc2cn(CCn3cc(COCC(COCc4cn(CCn5cc(CO[C@@H]6O[C@H](CO)[C@H](O)[C@H](O)[C@H]6O)nn5)nn4)(COCc4cn(CCn5cc(CO[C@@H]6O[C@H](CO)[C@H](O)[C@H](O)[C@H]6O)nn5)nn4)COCc4cn(CCn5cc(CO[C@@H]6O[C@H](CO)[C@H](O)[C@H](O)[C@H]6O)nn5)nn4)nn3)nn2)[C@H](O)[C@@H](O)[C@H]1O [Compound 13] | -134.0 ± 1.45 kJ/mol | 470 ± 54.5 10^4 M^−1 | 95.7 ± 12.15 kJ/mol | -38.1 ± 4.42 kJ/mol | 0.21 ± 0.01 | no aggregates were observed; also recorded: no clearly distinguishable aggregates were detected |  |  | 4.3 µM |  |  | 

— paper PMC6920806, “Synthesis of β-D-galactopyranoside-Presenting Glycoclusters, Investigation of Their Interactions with Pseudomonas aeruginosa Lectin A (PA-IL) and Evaluation of Their Anti-Adhesion Potential” (Biomolecules, 2019)
